Laboratory results reported in patent US9586907B2, “Isothiocyanate compounds, pharmaceutical compositions, and uses thereof” (priority 2006, dated 2017).
In brackets after ≈: the same amount, converted by molar mass. Like-named read-outs stand apart in the source and are kept apart here.

What was measured:
[1] = test system: clinical isolates of bacteria and fungus (including yeasts); assay: General antimicrobial activity, semi-quantitative score on collection of clinical isolates; type: cell-based; conditions: for antimicrobial / growth-inhibitory activity (in words): Table 1 screen; on General antimicrobial activity: key: −: indicating no activity; +++++: indicating highest activity
Description: The growth inhibitory effect of a number of various ITC compounds were tested on large collection of clinical isolates of bacteria and fungus (including yeasts), in order to establish a systematic structure-activity relationship for the ITC compounds. […] To assess the average activity for an individual ITC compound, the semi-quantitative score was calculated for each compound based on the number of sensitive bacterial strains at concentrations of 100 and 200 μM.

[2] = test system: M. cansassi; assay: MIC, M. cansassi; type: cell-based
[3] = test system: M. fortuitum; assay: MIC, M. fortuitum; type: cell-based
[4] = test system: M. avium; assay: MIC, M. avium; type: cell-based
[5] = test system: M. bovis BCG; assay: microbe, parasite or virus in culture; type: cell-based
[6] = test system: M. scrofulaceum; assay: MIC, M. scrofulaceum; type: cell-based
[7] = test system: M. tuberculosis CDC1551; assay: MIC, M. tuberculosis CDC1551; type: cell-based
Description: (§1) Next, several of the bifunctional ITC compounds were tested for their ability to inhibit the growth of some clinical isolates of Mycobacteria, the results of which are summarized in Table 3 below.

[8] = test system: M. tuberculosis W4; assay: MIC, M. tuberculosis W4; type: cell-based
Description: as §1

[9] = test system: M. tuberculosis H37Rv; assay: MIC, M. tuberculosis H37Rv; type: cell-based
Description: as §1

[10] = test system: M. tuberculosis 210; assay: MIC, M. tuberculosis 210; type: cell-based
Description: as §1

[11] = test system: M. tuberculosis P; assay: MIC, M. tuberculosis P; type: cell-based
Description: as §1

[12] = test system: M. tuberculosis AB; assay: MIC, M. tuberculosis AB; type: cell-based
Description: as §1

[13] = test system: M. intracellularie; assay: MIC, M. intracellularie; type: cell-based
[14] = test system: M. tuberculosis W; assay: MIC, M. tuberculosis W; type: cell-based
Description: as §1

[15] = test system: Pseudomonas aeruginosa BK12348; assay: MIC, Pseudomonas aeruginosa BK12348; conditions: Pseudomonas aeruginosa BK12348; Gram −; 24 hours of incubation
[16] = test system: Escherichia coli BK12336; assay: MIC, Escherichia coli BK12336; conditions: Escherichia coli BK12336; Gram −; 24 hours of incubation
[17] = test system: Klebsiella pneumonii BK12260; assay: MIC, Klebsiella pneumonii BK12260; conditions: Klebsiella pneumonii BK12260; Gram −; 24 hours of incubation
[18] = test system: Bacillus cereus 4342; assay: MIC, Bacillus cereus 4342; conditions: Bacillus cereus 4342; Gram +; 24 hours of incubation
[19] = test system: Pseudomonas aeruginosa BK12347; assay: MIC, Pseudomonas aeruginosa BK12347; conditions: Pseudomonas aeruginosa BK12347; Gram −; 24 hours of incubation
[20] = test system: Acinetobacter sp., BK12786; assay: MIC, Acinetobacter sp., BK12786; conditions: Acinetobacter sp., BK12786; Gram −; 24 hours of incubation
[21] = test system: Enterococcus sp., BK11940; assay: MIC, Enterococcus sp., BK11940; conditions: Enterococcus sp., BK11940; Gram +; 24 hours of incubation
[22] = test system: Serattia marcescens BK12421; assay: MIC, Serattia marcescens BK12421; conditions: Serattia marcescens BK12421; Gram −; 24 hours of incubation
[23] = test system: Enterobacter cloacii BK12313; assay: MIC, Enterobacter cloacii BK12313; conditions: Enterobacter cloacii BK12313; Gram −; 24 hours of incubation
[24] = test system: Escherichia coli K12; assay: MIC, Escherichia coli K12; conditions: Escherichia coli K12; Gram −; 24 hours of incubation
[25] = test system: Bacillus subtilis BK11590; assay: MIC, Bacillus subtilis BK11590; type: cell-based; conditions: Gram +, 24 hours of incubation
[26] = test system: Klebsiella pneumonii BK12261; assay: MIC, Klebsiella pneumonii BK12261; conditions: Klebsiella pneumonii BK12261; Gram −; 24 hours of incubation
[27] = test system: Staphylococcus epidermidis BK12799; assay: MIC, Staphylococcus epidermidis BK12799; conditions: Staphylococcus epidermidis BK12799; Gram +; 24 hours of incubation
[28] = test system: Shigella sp., BK 12441; assay: MIC, Shigella sp., BK 12441; type: cell-based; conditions: Gram −, 24 hours of incubation
[29] = test system: Serattia marcescens BK12426; assay: MIC, Serattia marcescens BK12426; conditions: Serattia marcescens BK12426; Gram −; 24 hours of incubation
[30] = test system: MRSA (Staphylococcus aureus) BK12060; assay: MIC, MRSA BK12060; conditions: MRSA BK12060; Gram +; 24 hours of incubation
[31] = test system: Enterococcus sp., BK11936; assay: MIC, Enterococcus sp., BK11936; conditions: Enterococcus sp., BK11936; Gram +; 24 hours of incubation
[32] = test system: Acinetobacter sp., BK12787; assay: MIC, Acinetobacter sp., BK12787; conditions: Acinetobacter sp., BK12787; Gram −; 24 hours of incubation
[33] = test system: Shigella sp., BK 12440; assay: MIC, Shigella sp., BK 12440; type: cell-based; conditions: Gram −, 24 hours of incubation
[34] = test system: Staphylococcus epidermidis BK12798; assay: MIC, Staphylococcus epidermidis BK12798; conditions: Staphylococcus epidermidis BK12798; Gram +; 24 hours of incubation
[35] = test system: MRSA (Staphylococcus aureus) BK12064; assay: MIC, MRSA BK12064; conditions: MRSA BK12064; Gram +; 24 hours of incubation
[36] = test system: Enterobacter cloacii BK12315; assay: MIC, Enterobacter cloacii BK12315; conditions: Enterobacter cloacii BK12315; Gram −; 24 hours of incubation
[37] = test system: Aspergillus fumigatus Rit 11; assay: Anti-fungal MIC, Aspergillus fumigatus Rit 11; conditions: Aspergillus fumigatus, RIT11, read-out: Anti-Fungal Activity (MIC)
[38] = test system: Aspergillus fumigatus Rit 1; assay: Anti-fungal MIC, Aspergillus fumigatus Rit 1; conditions: Aspergillus fumigatus, RIT1, read-out: Anti-Fungal Activity (MIC)
[39] = test system: Candida albicans 90028; assay: Anti-fungal MIC, Candida albicans 90028; conditions: Candida albicans, 90028, read-out: Anti-Fungal Activity (MIC)
[40] = test system: Cryptococcus neoformans CNH99; assay: Anti-fungal MIC, Cryptococcus neoformans CNH99; conditions: Cryptococcus neoformans, CNH99, read-out: Anti-Fungal Activity (MIC)
[41] = test system: Candida albicans 5108^mdr; assay: Anti-fungal MIC, Candida albicans 5108^mdr; conditions: Candida albicans, read-out: Anti-Fungal Activity (MIC)
[42] = test system: Aspergillus fumigatus Rit 21; assay: Anti-fungal MIC, Aspergillus fumigatus Rit 21; conditions: Aspergillus fumigatus, RIT21, read-out: Anti-Fungal Activity (MIC)
[43] = test system: Candida dlabrata 250^mdr; assay: Anti-fungal MIC, Candida dlabrata 250^mdr; conditions: Candida, read-out: Anti-Fungal Activity (MIC)
[44] = test system: Candida crusei 6258^mdr; assay: microbe, parasite or virus in culture; conditions: read-out: Anti-Fungal Activity (MIC)
[45] = test system: Candida parapsilosis 22019; assay: Anti-fungal MIC, Candida parapsilosis 22019; conditions: 22019, read-out: Anti-Fungal Activity (MIC)
[46] = test system: Candida albicans 90030; assay: Anti-fungal MIC, Candida albicans 90030; conditions: Candida albicans, 90030, read-out: Anti-Fungal Activity (MIC)
[47] = Mycobacterium tuberculosis, read-out: MIC

Compound: CCCCN=C=S [Compound 7, CH3CH2CH2CH2—N═C═S, reference compound]
- antimicrobial / growth-inhibitory activity (in words) [1]: very little activity

Compound: CN=C=S [Compound 8, CH3—N═C═S, reference compound]
- antimicrobial / growth-inhibitory activity (in words) [1]: very little activity

Compound: O=C(O)c1cc(N=C=S)ccc1-c1c2ccc(O)cc2cc2cc(O)ccc12 [Compound 14, reference compound]
- antimicrobial / growth-inhibitory activity (in words) [1]: poor growth-inhibitory activity

Compound: C=CCN=C=S [Compound 22, CH2═CH2CH2—N═C═S, reference compound]
- antimicrobial / growth-inhibitory activity (in words) [1]: very little activity

Compound: O=C=NCc1ccccc1 [Compound 23, reference compound]
- antimicrobial / growth-inhibitory activity (in words) [1]: Neither of the chemically related derivatives—isocyanate (Compound 23) or thiocyanate (Compound 25)—displayed any activity
- General antimicrobial activity ([1]; semi-quantitative score from number of sensitive bacterial strains at 100 and 200 μM, deduced from number of sensitive bacterial species and average MIC): −

Compound: S=C=NCC12CC3CC(CC(C3)C1)C2 [Compound 35]
- antimicrobial / growth-inhibitory activity (in words) [1]: poor growth-inhibitory activity

Compound: S=C=NCCCCCCN=C=S [Compound 40, S═C═N—(CH2)6—N═C═S]
- MIC ([2]; M. cansassi): 8 µg/mL (≈ 39.9 µM)
- MIC ([3]; M. fortuitum): 16 µg/mL (≈ 79.9 µM)
- MIC ([4]; M. avium): 32 µg/mL (≈ 160 µM)
- MIC [5]: 2 µg/mL (≈ 9.98 µM)
- MIC ([6]; M. scrofulaceum): 32 µg/mL (≈ 160 µM)
- MIC [7]: 4 µg/mL (≈ 20 µM)
- MIC [8]: 2 µg/mL (≈ 9.98 µM)
- MIC [9]: 2 µg/mL (≈ 9.98 µM)
- MIC [10]: 2 µg/mL (≈ 9.98 µM)
- MIC [11]: 2 µg/mL (≈ 9.98 µM)
- MIC [12]: 4 µg/mL (≈ 20 µM)
- MIC ([13]; M. intracellularie): 32 µg/mL (≈ 160 µM)
- MIC [14]: 0.5 µg/mL (≈ 2.5 µM)

Compound: OCCCCCCCN=C=S [Compound 44, HO—(CH2)7—N═C═S]
- MIC [15]: >64 µg/mL
- MIC [16]: >64 µg/mL
- MIC [17]: >64 µg/mL
- MIC [18]: 8 µg/mL (≈ 46.2 µM)
- MIC [19]: >64 µg/mL
- MIC [20]: 64 µg/mL (≈ 369 µM)
- MIC [21]: 32 µg/mL (≈ 185 µM)
- MIC [22]: >64 µg/mL
- MIC [23]: >64 µg/mL
- MIC [24]: >64 µg/mL
- MIC [25]: 4 µg/mL (≈ 23.1 µM)
- MIC [26]: >64 µg/mL
- MIC [27]: 8 µg/mL (≈ 46.2 µM)
- MIC [28]: 64 µg/mL (≈ 369 µM)
- MIC [29]: >64 µg/mL
- MIC [30]: 8 µg/mL (≈ 46.2 µM)
- MIC [31]: 32 µg/mL (≈ 185 µM)
- MIC [32]: 64 µg/mL (≈ 369 µM)
- MIC [33]: 64 µg/mL (≈ 369 µM)
- MIC [34]: 8 µg/mL (≈ 46.2 µM)
- MIC [35]: 16 µg/mL (≈ 92.3 µM)
- MIC [36]: >64 µg/mL

Compound: OC(Cn1cncn1)(Cn1cncn1)c1ccc(F)cc1F [Fluc, Fluconazol, reference compound]
- MIC [37]: > 64 µg/mL
- MIC [38]: > 64 µg/mL
- MIC [39]: 0.25 µg/mL (≈ 0.816 µM)
- MIC [40]: 4 µg/mL (≈ 13.1 µM)
- MIC [41]: 32 µg/mL (≈ 104 µM)
- MIC [42]: > 64 µg/mL
- MIC [43]: > 64 µg/mL
- MIC [44]: 32 µg/mL (≈ 104 µM)
- MIC [45]: 2 µg/mL (≈ 6.53 µM)
- MIC [46]: 4 µg/mL (≈ 13.1 µM)

Compound: CO[C@H]1/C=C/O[C@@]2(C)Oc3c(C)c(O)c4c(O)c(c(/C=N/N5CCN(C)CC5)c(O)c4c3C2=O)NC(=O)/C(C)=C\C=C\[C@H](C)[C@H](O)[C@@H](C)[C@@H](O)[C@@H](C)[C@H](OC(C)=O)[C@@H]1C [Rif, Rifampicin, reference compound]
- MIC [2]: 0.5 µg/mL (≈ 0.608 µM)
- MIC ([3]; Mycolicibacterium fortuitum): > 4 µg/mL
- MIC ([4]; Mycobacterium avium): 0.5 µg/mL (≈ 0.608 µM)
- MIC ([5]; Mycobacterium tuberculosis variant bovis BCG, BCG): 0.5 µg/mL (≈ 0.608 µM)
- MIC ([6]; Mycobacterium scrofulaceum): 0.5 µg/mL (≈ 0.608 µM)
- MIC [7, 47]: 0.5 µg/mL (≈ 0.608 µM)
- MIC [8, 47]: 0.5 µg/mL (≈ 0.608 µM)
- MIC [9, 47]: 0.5 µg/mL (≈ 0.608 µM)
- MIC [10, 47]: 0.5 µg/mL (≈ 0.608 µM)
- MIC [11, 47]: > 4 µg/mL
- MIC [12, 47]: 0.5 µg/mL (≈ 0.608 µM)
- MIC [13]: 0.5 µg/mL (≈ 0.608 µM)
- MIC [14, 47]: > 4 µg/mL
